By Kd is commonly meant the free concentration of one partner at which half of the binding sites on the other are occupied at equilibrium, for simple one-to-one binding. For orientation: IC50 means the concentration at which inhibition is half-maximal.

The structures appear in SMILES notation.

Test [1] addresses T1, Adenosine receptor A2a (Homo sapiens, UniProt P29274). Description: Binding affinity to human wild type adenosine A2A receptor expressed in Expi293F cells assessed as dissociation constant by surface plasmon resonance assay. In general terms: Surface plasmon resonance follows binding to a sensor surface in real time, without labels.
A further test has as its target T2, Adenosine receptor A1 (Homo sapiens, UniProt P30542).
T2 sequence (P30542 whole entry): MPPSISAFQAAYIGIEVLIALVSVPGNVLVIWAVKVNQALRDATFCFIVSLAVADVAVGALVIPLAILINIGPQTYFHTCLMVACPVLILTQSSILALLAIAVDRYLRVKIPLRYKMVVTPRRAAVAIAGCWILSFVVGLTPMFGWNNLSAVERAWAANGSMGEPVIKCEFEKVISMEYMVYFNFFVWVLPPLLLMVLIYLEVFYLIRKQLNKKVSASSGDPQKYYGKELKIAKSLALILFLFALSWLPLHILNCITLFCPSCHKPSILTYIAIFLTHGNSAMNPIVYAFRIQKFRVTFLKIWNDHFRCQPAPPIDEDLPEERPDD
Description: Binding affinity to human wild type adenosine A1 receptor expressed in Expi293F cells assessed as dissociation constant by surface plasmon resonance assay.

The next test deals with T3, Adenosine receptor A2b (Homo sapiens, UniProt P29275).
T3 sequence (P29275 whole entry): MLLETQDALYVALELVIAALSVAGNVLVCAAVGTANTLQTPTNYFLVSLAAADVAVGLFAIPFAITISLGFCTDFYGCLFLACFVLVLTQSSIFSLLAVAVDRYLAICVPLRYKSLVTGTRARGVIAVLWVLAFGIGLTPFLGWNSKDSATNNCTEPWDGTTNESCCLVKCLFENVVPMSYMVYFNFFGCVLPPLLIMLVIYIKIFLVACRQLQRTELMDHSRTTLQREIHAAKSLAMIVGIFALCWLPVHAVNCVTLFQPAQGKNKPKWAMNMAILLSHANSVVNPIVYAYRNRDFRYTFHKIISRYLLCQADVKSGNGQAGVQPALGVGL
As to the kind of experiment: Binding affinity to human wild type adenosine A2B receptor expressed in Expi293F cells assessed as dissociation constant by surface plasmon resonance assay.

The target of a further test is T4, Adenosine receptor A3 (Homo sapiens, UniProt P0DMS8).
T4 sequence (P0DMS8 whole entry): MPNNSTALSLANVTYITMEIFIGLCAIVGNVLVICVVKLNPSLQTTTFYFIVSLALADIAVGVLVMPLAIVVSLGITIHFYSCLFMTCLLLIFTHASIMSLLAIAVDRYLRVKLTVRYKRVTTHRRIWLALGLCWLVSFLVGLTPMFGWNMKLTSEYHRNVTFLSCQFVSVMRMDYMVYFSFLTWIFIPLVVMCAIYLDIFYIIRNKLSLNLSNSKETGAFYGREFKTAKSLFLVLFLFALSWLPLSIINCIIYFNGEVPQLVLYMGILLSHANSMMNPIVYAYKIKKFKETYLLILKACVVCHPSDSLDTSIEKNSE
As to the kind of experiment: Binding affinity to human wild type adenosine A3 receptor expressed in Expi293F cells assessed as dissociation constant by surface plasmon resonance assay.

Test [2] deals with T1, Adenosine receptor A2a. As to the kind of experiment: Antagonist activity at human adenosine A2A receptor expressed in HEK293T cells assessed as inhibition of NECA-induced Gs short protein activation by TRUPATH assay. Format: functional, cell-based.

T1 sequence (P29274 whole entry): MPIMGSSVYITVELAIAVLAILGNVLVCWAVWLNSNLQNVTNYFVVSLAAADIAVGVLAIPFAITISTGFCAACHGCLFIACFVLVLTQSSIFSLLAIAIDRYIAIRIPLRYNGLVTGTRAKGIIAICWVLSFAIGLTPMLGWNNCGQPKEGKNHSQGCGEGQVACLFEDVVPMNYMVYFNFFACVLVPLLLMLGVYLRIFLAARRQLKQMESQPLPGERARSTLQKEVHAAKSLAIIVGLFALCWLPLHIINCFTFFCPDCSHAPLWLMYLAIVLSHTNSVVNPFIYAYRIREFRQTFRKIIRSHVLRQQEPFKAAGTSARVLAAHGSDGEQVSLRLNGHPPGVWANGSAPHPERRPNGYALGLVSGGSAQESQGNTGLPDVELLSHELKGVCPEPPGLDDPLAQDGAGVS

Consider `O=C(Nc1ccc2ccccc2n1)c1ccco1`, for which the dissociation constant Kd on Adenosine receptor A2a [1] worked out at 40 µM; on Adenosine receptor A1 it was 59 µM; at Adenosine receptor A2b it was 123 µM; on Adenosine receptor A3 it was 56 µM. For the same molecule, the IC50 on Adenosine receptor A2a [2] is 0.166 µM.
